{
  "source": "patent US20070243548A1",
  "about": "“Calumenin-directed diagnostics and therapeutics for cancer and chemotherapeutic drug resistance” (priority 2006, published 2007)",
  "key": {"MCF-7/ADR xenografts": {"tested_on": "MCF-7/ADR xenografts", "assay": "Mammary adenocarcinoma MCF-7/ADR xenografts in nude mice", "type": "in vivo", "details": "adenocarcinomas, vs mice treated with control siRNA", "description": "In further studies, the efficacy of a calumenin-targeted therapeutic in treating an MDR mammary adenocarcinoma cells (MCF/AR) is assessed. Briefly, male […] nude mice 5 to 7 weeks old, weighing 18 g to 22 g, are used for the MCF-7/ADR xenografts. Mice receive a subcutaneous (s.c.) injection of the cells using 5×10^5 cells/inoculation under the shoulder. When the s.c. tumor is approximately 5.5 mm in size, mice are randomized into treatment groups of 4 including controls and groups receiving taxol or doxorubicin, alone (4 mg/kg), intraperitoneally (i.p.) every 2 days, calumenin siRNA alone (3 μg daily for 16 days), or both taxol and calumenin siRNA (3 μg daily for 16 days for each treatment). […] The animal's weight is measured every 4 days. Tumor growth starting on the first day of treatment is measured and the volume of the xenograft is monitored every 4 days. […] Tumor tissue is excised from the mice and its weight is measured. […]\nIn further studies, the efficacy of a calumenin-targeted therapeutic in treating a mammary adenocarcinoma cells (MCF-7) is assessed. […] The animal's weight is measured every 4 days. Tumor growth starting on the first day of treatment is measured and the volume of the xenograft is monitored every 4 days. […] Tumor tissue is excised from the mice and its weight is measured. […]"}, "MCF-7 cells [1]": {"tested_on": "MCF-7 cells", "assay": "Apoptosis assay (Annexin V staining)", "type": "cell-based, human", "details": "FIG. 4", "description": "This assay was performed to determine the number of cells that were susceptible to chemotherapeutic drugs following incubation with siRNAs. Cells transfected with siRNA were seeded in Lab-Tek 16-well chamber slides (Electron Microscopy Sciences, Hatfield, Pa.) at 10^4 cells/well 48 hrs post-transfection. Apoptosis was determined 16 hours later by annexin-V staining using the Annexin-V FLUOS kit (Roche, Ltd., Basel, CH) following the manufacturer's instructions. Slides were observed under a fluorescence microscope and images were taken using an Olympus digital camera and the Q-Capture software (QImaging, Burnaby, BC, CA)."}, "MCF-7 cells [2]": {"tested_on": "MCF-7 cells", "assay": "cells", "type": "cell-based, human", "description": "For a typical siRNA transfection, […] of the annealed siRNA duplex was mixed with 1.4 ml of Opti-MEM reagent (Invitrogen). In another tube, […] of Oligofectamine reagent (Invitrogen, Carlsbad, Calif.) was mixed with […] of Opti-MEM. The two solutions were combined and mixed gently by inversion and incubated for 20 min. at RT. The resulting solution was added to the cultured cells drop by drop in a 10 cm dish (cells are approximately 40-50% confluent). The next day the transfected cells were trypsinized and seeded in 6 or 96-well plates and further incubated for the indicated amount of time (assay dependent) before further analysis.\nCell survival was determined using the MTT cytotoxicity assay (see, e.g., Tokuyama et al. (2005) Anticancer Res. 25(1A): 17-22). Small interfering RNA transfected cells were seeded in triplicate into 96-well plates at 5×10^3 cells/well 48 hrs post-transfection. The cells were incubated for an additional 16 to 24 hrs before they were exposed to increasing concentrations of cytotoxic drugs. Doxorubicin (adriamycin), cisplatin, taxol, vinblastine, vincristine, and mitoxantrone were all purchased from Sigma Corp. (St. Louis, Mo.). Stocks were made as follows: 6 mM for doxorubicin, 1.1 mM for vincristine and vinblastine; 1.1 mM for taxol, 50 mM for cisplatin both in DMSO; and 0.97 mM mitoxantrone in ethanol. Appropriate dilutions were made in the respective media for each cell line. Following addition of drugs, incubation was continued for an additional 72 hrs. […] of MTT dye (5 mg/ml) were added into each well and the plate was further incubated at 37° C. for 4 hrs. The dye was solubilized with 10% Triton X-100, 0.01 N HCl and further incubated at 37° C. in the dark for 30 min. Cell viability was determined by measure of absorption at 570 nm in a Wallac multiwell plate reader (PerkinElmer, Inc., Boston, Mass.). The averages of triplicate wells were plotted using the Prism software (GraphPad Software, Inc., San Diego, Calif.)."}},
  "data": [
    {"substance": "Calumenin siRNA: siRNA duplex targeting human calumenin mRNA; sense 5′-GAAGGACCGUGUACAUCAU-3′ (SEQ ID NO: 1), anti-sense 5′-AUGAUGUACACGGUCCUUC-3′ (SEQ ID NO: 2), 3′TT overhangs (3' TT overhangs on both strands, further chemistry not given here)", "values": [
      {"measurement": "total cell number in tumors", "setting": "MCF-7/ADR xenografts", "value": "lower"},
      {"measurement": "tumors by weight", "setting": "MCF-7/ADR xenografts; 3 μg siRNA daily for 16 days", "value": "smaller"},
      {"measurement": "number of Annexin-V-positive cells", "setting": "MCF-7 cells [1]; compared to cell population treated with control siRNA", "value": "substantially greater number"},
      {"measurement": "cell survival", "setting": "MCF-7 cells [1]; compared to cells treated with siGLO control siRNA", "value": "decreased"},
      {"measurement": "decrease in cell viability of MCF-7 cells", "setting": "MCF-7 cells [2]", "value": 48, "unit": "%"}
    ]}
  ]
}
